The source made the active and inactive calls.
Assays:
[1] = A cytotoxicity screen of small molecule inhibitors of the PhoP region in Salmonella typhi identified in the primary screen. [Related pubchem assays: 1850, 1864, 1985 ]; type: functional
Cytochrome P450 2C19 = Cytochrome P450 2C19 (Homo sapiens, UniProt P33261); test: Cytochrome panel assay with activity outcomes. Panel member name: p450-cyp2c19 Compounds with AC50 equal or less than 10 uM are considered active; type: functional; settings: read-out: AC50
Cytochrome P450 2C19, sequence (P33261 whole entry): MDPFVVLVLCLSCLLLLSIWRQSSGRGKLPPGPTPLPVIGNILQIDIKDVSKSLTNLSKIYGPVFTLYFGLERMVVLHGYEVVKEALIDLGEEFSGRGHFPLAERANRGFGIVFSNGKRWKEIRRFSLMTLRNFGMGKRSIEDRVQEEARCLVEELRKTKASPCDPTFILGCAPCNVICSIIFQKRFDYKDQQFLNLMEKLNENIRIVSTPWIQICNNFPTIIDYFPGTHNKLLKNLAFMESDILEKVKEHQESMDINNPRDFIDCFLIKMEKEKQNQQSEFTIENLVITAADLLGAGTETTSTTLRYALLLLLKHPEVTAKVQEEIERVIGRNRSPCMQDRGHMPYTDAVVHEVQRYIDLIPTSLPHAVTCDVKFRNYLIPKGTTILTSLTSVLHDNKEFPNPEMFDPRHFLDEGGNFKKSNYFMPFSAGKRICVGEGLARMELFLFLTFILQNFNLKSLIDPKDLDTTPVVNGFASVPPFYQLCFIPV

Cytochrome P450 1A2 = biological target: T1, Cytochrome P450 1A2 (Homo sapiens, UniProt P05177);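 further: PubChem cytochrome P450 panel assay, CYP1A2 panel member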
T1 sequence (P05177 whole entry): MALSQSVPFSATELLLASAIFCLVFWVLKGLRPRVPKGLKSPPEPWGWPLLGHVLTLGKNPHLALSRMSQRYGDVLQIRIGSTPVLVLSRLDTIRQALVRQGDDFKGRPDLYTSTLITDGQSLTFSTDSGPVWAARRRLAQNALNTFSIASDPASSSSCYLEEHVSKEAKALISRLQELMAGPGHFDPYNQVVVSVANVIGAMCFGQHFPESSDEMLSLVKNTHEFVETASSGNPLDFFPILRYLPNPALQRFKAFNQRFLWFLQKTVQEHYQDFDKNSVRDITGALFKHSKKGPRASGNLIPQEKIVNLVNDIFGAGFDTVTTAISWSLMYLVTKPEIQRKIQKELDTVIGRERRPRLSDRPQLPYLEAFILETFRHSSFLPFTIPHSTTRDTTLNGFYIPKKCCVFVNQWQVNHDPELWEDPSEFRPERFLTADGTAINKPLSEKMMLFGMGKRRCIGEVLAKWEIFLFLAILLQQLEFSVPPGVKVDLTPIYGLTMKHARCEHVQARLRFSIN

Cytochrome P450 2C9 [2] = biological target: T2, Cytochrome P450 2C9 (Homo sapiens, UniProt P11712)
T2 sequence (P11712 whole entry): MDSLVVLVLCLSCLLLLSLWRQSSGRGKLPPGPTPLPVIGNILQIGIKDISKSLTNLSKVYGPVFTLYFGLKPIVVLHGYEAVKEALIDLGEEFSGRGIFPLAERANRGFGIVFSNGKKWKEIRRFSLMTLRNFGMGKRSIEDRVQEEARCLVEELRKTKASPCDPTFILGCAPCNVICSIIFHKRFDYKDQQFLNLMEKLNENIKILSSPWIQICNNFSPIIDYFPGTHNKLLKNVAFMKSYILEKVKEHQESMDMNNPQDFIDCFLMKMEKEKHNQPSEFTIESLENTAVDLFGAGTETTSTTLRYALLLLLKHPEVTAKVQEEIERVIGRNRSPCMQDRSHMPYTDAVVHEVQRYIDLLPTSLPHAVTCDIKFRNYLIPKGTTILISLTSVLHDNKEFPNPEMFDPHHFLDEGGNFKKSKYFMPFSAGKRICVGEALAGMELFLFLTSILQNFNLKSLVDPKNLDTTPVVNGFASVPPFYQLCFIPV

Cytochrome P450 2D6 = Cytochrome P450 2D6 (Homo sapiens, UniProt P10635);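 further: CYP2D6 member of a cytochrome P450 panel assay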
Cytochrome P450 2D6, sequence (P10635 whole entry): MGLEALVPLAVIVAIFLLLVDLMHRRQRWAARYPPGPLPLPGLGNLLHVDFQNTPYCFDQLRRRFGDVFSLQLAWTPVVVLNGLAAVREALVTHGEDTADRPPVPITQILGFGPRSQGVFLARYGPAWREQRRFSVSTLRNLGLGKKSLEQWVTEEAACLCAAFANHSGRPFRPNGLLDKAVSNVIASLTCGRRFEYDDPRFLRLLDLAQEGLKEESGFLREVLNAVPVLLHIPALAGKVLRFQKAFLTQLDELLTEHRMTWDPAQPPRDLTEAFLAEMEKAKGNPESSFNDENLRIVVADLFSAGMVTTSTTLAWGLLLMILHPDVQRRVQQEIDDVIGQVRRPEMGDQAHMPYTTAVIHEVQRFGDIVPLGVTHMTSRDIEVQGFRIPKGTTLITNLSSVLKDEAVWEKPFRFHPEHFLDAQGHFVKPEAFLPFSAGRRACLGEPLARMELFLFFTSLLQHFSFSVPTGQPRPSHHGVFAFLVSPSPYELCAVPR

[3] = viability of uninfected HEp-2 cells – cell-based, HTS, cytotoxicity control for RSV inhibitor project, dose response (AID 2410); type: functional; settings: human respiratory syncytial virus
[4] = biological target: Voltage-dependent T-type calcium channel subunit alpha-1H (Homo sapiens, UniProt O95180); type: functional;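 further: channel activity triggered by adding a high calcium stimulation buffer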
Cytochrome P450 2C9 [5] = biological target: T2, Cytochrome P450 2C9; remark: listed apart in the source
cells = type: functional
[6] = biological target: T3, E3 ubiquitin-protein ligase XIAP (Homo sapiens, UniProt P98170); test: Counter Screen using XIAP-Bir3 for Chemical Antagonists of Bir1/2 domains of IAP-family anti-apoptotic proteins. [Related pubchem assays (depositor defined):AID1018, AID1449, AID1514, AID1638, AID1749, AID1750, AID488957, AID488963]
T3 sequence (P98170 whole entry): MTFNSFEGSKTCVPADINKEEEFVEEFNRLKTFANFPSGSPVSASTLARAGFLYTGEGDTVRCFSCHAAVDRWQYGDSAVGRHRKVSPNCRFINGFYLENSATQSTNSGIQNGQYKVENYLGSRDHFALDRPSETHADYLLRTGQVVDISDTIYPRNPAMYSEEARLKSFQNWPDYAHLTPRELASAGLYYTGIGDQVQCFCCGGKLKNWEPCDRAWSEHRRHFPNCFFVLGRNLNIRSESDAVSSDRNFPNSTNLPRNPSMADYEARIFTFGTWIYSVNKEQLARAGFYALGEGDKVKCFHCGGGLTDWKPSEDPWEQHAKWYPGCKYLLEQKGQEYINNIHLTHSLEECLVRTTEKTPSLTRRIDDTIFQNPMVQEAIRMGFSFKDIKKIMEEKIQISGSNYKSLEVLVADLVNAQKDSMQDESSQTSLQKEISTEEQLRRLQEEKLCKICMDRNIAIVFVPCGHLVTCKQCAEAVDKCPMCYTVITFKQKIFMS

[7] = biological target: T3, E3 ubiquitin-protein ligase XIAP; test: small molecules displacing peptide from XIAP – biochemical, IAP family, fluorescence polarization (AID 1018); type: functional
[8] = biological target: T4, Carboxy-terminal domain RNA polymerase II polypeptide A small phosphatase 1 (Homo sapiens, UniProt Q9GZU7); test: CTDSP1 inhibitors, concentration-response, biochemical, absorbance readout, ultra-high-throughput screen actives (AID 540297); type: functional
T4 sequence (Q9GZU7 whole entry): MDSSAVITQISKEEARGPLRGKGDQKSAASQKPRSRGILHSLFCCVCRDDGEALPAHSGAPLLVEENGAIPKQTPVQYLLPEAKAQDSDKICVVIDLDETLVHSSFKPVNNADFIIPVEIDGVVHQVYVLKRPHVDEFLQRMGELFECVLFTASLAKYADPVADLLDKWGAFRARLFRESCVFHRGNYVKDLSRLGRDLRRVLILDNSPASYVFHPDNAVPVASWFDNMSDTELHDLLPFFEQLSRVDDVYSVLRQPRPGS

[9] = viability loss in THP-1 monocytes – THP-1 cells, cytotoxicity control for Vif-APOBEC3G degradation inhibitor project, dose response (AID 1117359); type: functional; settings: THP-1
Cytochrome P450 3A4 = Cytochrome P450 3A4 (Homo sapiens, UniProt P08684);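 further: CYP3A4 tested as one member of a cytochrome P450 panel screen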
Cytochrome P450 3A4, sequence (P08684 whole entry): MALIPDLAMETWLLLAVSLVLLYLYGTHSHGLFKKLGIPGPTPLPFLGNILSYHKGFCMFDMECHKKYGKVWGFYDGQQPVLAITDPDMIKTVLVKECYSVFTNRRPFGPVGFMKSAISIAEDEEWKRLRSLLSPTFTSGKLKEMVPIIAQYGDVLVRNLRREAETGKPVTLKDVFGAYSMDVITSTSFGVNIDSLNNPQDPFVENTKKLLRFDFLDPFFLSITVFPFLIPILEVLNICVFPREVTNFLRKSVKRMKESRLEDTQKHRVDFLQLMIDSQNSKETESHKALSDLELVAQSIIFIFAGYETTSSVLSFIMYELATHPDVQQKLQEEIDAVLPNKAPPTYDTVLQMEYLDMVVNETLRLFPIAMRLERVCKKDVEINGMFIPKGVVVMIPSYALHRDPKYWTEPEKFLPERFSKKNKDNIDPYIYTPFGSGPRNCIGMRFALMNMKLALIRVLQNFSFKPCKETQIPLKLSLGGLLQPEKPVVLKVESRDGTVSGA

[10] = biological target: Glyceraldehyde-3-phosphate dehydrogenase (Homo sapiens, UniProt P04406)
Glyceraldehyde-3-phosphate dehydrogenase, sequence (P04406 whole entry): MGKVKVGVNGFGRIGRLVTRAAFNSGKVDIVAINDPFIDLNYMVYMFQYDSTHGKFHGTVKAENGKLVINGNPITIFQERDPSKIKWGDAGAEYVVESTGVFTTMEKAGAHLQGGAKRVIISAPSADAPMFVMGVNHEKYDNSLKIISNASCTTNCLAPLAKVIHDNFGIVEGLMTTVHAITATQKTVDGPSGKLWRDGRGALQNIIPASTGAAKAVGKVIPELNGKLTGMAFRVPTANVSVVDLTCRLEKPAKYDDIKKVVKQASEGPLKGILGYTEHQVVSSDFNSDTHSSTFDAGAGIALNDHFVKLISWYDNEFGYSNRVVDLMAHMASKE

CCCCCc1nc2c(c3c1CCCC3)CCCC2
EC50 [1]: > 50 µM (active)

O=C(Nc1ccc(Cl)cc1C(F)(F)F)c1ccc(Cl)cc1
AC50 (Cytochrome P450 2C19): 2.24 µM (inconclusive) | AC50 (Cytochrome P450 1A2): 4.47 µM (inconclusive) | AC50 (Cytochrome P450 2C9 [2]): inconclusive

O=S(=O)(NC1CCN(Cc2ccccc2)CC1)c1cccc2cccnc12
AC50 (Cytochrome P450 2D6): 1.58 µM (inconclusive) | AC50 (Cytochrome P450 2C9 [2]): inconclusive

Cc1ccc2[nH]c(SCc3ccc([N+](=O)[O-])cc3)nc2c1
CC50 [3]: 13.6 µM (active) | EC50 [4]: 4.41 µM (active) | AC50 (Cytochrome P450 2C19): 0.794 µM (active) | AC50 (Cytochrome P450 2D6): 5.01 µM (active) | AC50 (Cytochrome P450 1A2): 1.12 µM (active) | AC50 (Cytochrome P450 2C9 [5]): 3.55 µM (active)

COc1ccc(C(=O)OCn2nnc3ccccc3c2=O)cc1
IC50 (cells): 16.8 µM (active)

COC(=O)c1cc2sccc2n1Cc1nc(-c2cccc(Cl)c2)oc1C
IC50 [6]: > 100 µM (inactive) | IC50 [7]: > 100 µM (not active)

NC(=NOC(=O)N1c2ccccc2Sc2ccccc21)c1ccc(Br)cc1
IC50 [8]: 6.46 µM (active)

Cc1ccn2c(=O)nc(SCC(=O)NCc3ccccc3)nc2c1
IC50 [8]: 9.61 µM (active)

CC(C)c1cccc(-c2ccc3c(c2)S(=O)(=O)c2cccc(C(=O)NCc4ccco4)c2C3=O)c1
IC50 [8]: 8.02 µM (active)

Cc1cccc(NC(=O)c2onc3c2CCCC3)c1C
AC50 (Cytochrome P450 2C19): 20 µM (inconclusive) | AC50 (Cytochrome P450 2C9 [2]): inconclusive

O=C1CCCN1c1ccc(CNS(=O)(=O)c2ccc(F)cc2)cc1
EC50 [1]: > 50 µM (active)

COc1ccc(C2(O)CCN(Cc3nnnn3Cc3ccc(F)cc3)CC2)cc1
CC50 [9]: > 40 µM (active)

COc1cccc(C(=O)OCn2nnc3ccccc3c2=O)c1OC
IC50 (cells): 16.2 µM (active)

CCOc1ccccc1OCCOc1ccc(F)cc1
AC50 (Cytochrome P450 2D6): 22.4 µM (inconclusive) | AC50 (Cytochrome P450 2C9 [2]): inconclusive

Cc1cc(C(=O)OCC(=O)NCCC(C)C)c2ccccc2n1
AC50 (Cytochrome P450 3A4): 15.8 µM (inconclusive) | AC50 (Cytochrome P450 2C9 [2]): inconclusive

O=C(c1ccc(N2CCN(C(=O)c3ccccc3Br)CC2)cc1)c1cccc(F)c1
IC50 [10]: > 100 µM (not active)

COc1ccc(NC(=O)C2CCN(C(=O)c3cccs3)CC2)c(OC)c1
AC50 (Cytochrome P450 2C9 [2]): inconclusive

CC1(C(=O)N(c2ccccc2)C(C(=O)NC2CCCC2)c2ccccn2)CC(=O)N=C2C=CC=CN21 (stereo not drawn)
IC50 [6]: > 100 µM (inactive) | IC50 [7]: > 100 µM (not active)

Cc1cc(O)nc(NN=C(CC(C)C)CC(C)C)n1
IC50 [6]: > 100 µM (inactive) | IC50 [7]: > 100 µM (not active)
